In general, IC50 refers to the concentration needed to halve the response being measured.

Chain of human TRPA1 (O75762 whole entry): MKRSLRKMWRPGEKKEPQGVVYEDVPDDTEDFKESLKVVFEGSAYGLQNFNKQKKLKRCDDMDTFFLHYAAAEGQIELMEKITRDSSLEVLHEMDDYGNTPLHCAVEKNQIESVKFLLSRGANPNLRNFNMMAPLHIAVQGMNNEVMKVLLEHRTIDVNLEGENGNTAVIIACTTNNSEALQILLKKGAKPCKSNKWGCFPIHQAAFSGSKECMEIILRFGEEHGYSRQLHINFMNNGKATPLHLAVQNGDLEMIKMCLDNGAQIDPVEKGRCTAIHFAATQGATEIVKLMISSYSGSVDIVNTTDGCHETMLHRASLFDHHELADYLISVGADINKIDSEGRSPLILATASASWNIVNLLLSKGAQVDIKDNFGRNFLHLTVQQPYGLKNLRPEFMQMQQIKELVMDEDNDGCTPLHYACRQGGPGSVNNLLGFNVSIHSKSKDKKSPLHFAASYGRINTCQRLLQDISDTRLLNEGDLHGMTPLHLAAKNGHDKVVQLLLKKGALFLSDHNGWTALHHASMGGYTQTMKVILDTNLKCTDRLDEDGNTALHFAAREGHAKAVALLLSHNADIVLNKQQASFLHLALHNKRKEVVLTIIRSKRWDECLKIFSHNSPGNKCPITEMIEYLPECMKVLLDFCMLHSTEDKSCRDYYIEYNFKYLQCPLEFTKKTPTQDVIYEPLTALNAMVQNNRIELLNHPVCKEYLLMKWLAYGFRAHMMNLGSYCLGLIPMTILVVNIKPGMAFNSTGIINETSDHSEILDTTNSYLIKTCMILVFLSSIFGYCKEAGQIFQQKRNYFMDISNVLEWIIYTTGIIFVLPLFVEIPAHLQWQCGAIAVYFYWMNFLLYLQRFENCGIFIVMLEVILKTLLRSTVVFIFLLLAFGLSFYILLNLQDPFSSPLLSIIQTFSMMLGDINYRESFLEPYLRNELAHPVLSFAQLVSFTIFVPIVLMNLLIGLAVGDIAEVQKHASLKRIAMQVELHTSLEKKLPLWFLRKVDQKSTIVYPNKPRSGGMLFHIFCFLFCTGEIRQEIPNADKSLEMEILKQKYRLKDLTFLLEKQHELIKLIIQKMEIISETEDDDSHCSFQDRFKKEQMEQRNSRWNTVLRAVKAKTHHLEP

This assay addresses human TRPA1 (Homo sapiens (Human), UniProt O75762). The assay can be described thus: FLIPR assay of inhibitory activity on human TRPA1 (calcium ion flux fluorescence). It counts as cell-based. The following applies: HEK293 cells stably expressing human TRPA1. The method, then:
1. FLIPR Assay of Inhibitory Activity on Human TRPA1
A calcium ion flux fluorescence method (FLIPR assay) was adopted to measure the inhibitory activity of compounds on human TRPA1 channel. The literature reports of Lee and Chen et al. may be referred to for the method [Lee et al. Br J Pharmacol 2008, 153 (8): 1739-1749] [Chen et al. Pain 2011, 152(5):1165-72].
A HEK293 recombinant cell strain stably expressing human TRPA1 (Creative Biogene, NY) was cultured in DMEM (Thermo Fisher Scientific, Shanghai) medium (containing 10% calf serum, 5 μg/ml Blasticidin and 400 ug/ml G418). The incubator was under a condition of 37° C. and air humidity with 5% CO2.
TRPA1 cells were seeded in a 96-well analysis plate at a density of 75,000 cells per well (100 ul/well), and cultured overnight in an incubator at 37° C. and 5% CO2. On the second day, incubation was continued overnight under the same condition to induce the expression of TRPA1 after the culture medium in each well was poured out and a fresh supplement with the same culture medium containing 0.1 μg/ml Tetracycline was added. The further next day, the culture medium was pour out, a DMEM culture solution (also containing 2.5 mM Probenicid) containing 5 μM Fluo-4 AM (Molecular Probes) was added to each well, and incubation was conducted at 37° C. for 1 hour.
The compound was dissolved in 100% DMSO to prepare a 30 mM stock solution which was stored at −20° C. On the day of use, the compound stock solution was thawed at room temperature. Each compound was subjected to 1:5 serial dilution using DMSO medium at a starting concentration of 30 μM with 9 concentration points on a 96-well plate. Each compound was diluted in duplicate for testing. Ruthenium Red was used as the positive control compound and the same dilution was carried out at a starting concentration of 3 μM.
The cell analysis plate was placed in an FLIPR instrument […], and the compound in the compound plate was added to the corresponding hole on the cell analysis plate (First addition) via an automatic program, and the calcium ion fluorescence signal was recorded to determine whether the compound had agonistic activity. After 10 minutes, CaCl2 (Second addition) was added a final concentration of 3 mM to each well to stimulate intracellular calcium flux signals. Ca^++-dependent fluorescence signal was monitored continuously at 538 nm wavelength to analyze the inhibitory activity of the compounds.
The data was collected and analyzed using a FLIPR program. The fluorescence peak value was used to evaluate the inhibitory (or agonistic) activity of the compounds at each concentration. EXCEL and PRISM programs were used to calculate the IC50 value of the compounds.
With “4-((3-(4-(3-trifluoromethyl) phenyl)piperazine-1-carbonyl) propane-2-yl)amino)benzo- nitrile [Compound 9]”, the IC50 was found to be 5.67 µM.
For the compound `N#Cc1ccc(NC2(C(=O)N3CCN(c4cccc(C(F)(F)F)c4)CC3)CCCC2)cc1` [Compound 2, 4-((1-(4-(3-(trifluoromethyl)phenyl)piperazine-1-carbonyl)cyclopentyl)amino)benzo-nitrile], the IC50 stood at 0.105 µM.
The figure for `N#Cc1ccc(NC2(C(=O)N3CCN(c4ccccc4C(F)(F)F)CC3)CCCC2)cc1` [Compound 3, 4-((1-(4-(2-(trifluoromethyl)phenyl)piperazine-1-carbonyl)cyclopentyl)amino)benzo-nitrile] is 1.58 µM; for `N#Cc1ccc(NC2(C(=O)N3CCN(c4ccccc4OC(F)(F)F)CC3)CCCC2)cc1` [Compound 4, 4-((1-(4-(2-(trifluoromethoxy)phenyl)piperazine-1-carbonyl)cyclopentyl)amino)benzo-nitrile] it is 0.152 µM; for `N#Cc1ccc(NC2(C(=O)N3CCN(c4ccc(OC(F)(F)F)cc4)CC3)CCCC2)cc1` [Compound 5] it is 0.129 µM.
With `COc1cc(Cl)ccc1N1CCN(C(=O)C2(Nc3ccc(C#N)cc3)CCCC2)CC1` [Compound 6, 4-((1-(4-(4-chloro-2-methoxyphenyl)piperazine-1-carbonyl)cyclopentyl)amino)benzo-nitrile] the figure was 0.035 µM; with `Cc1cccc(N2CCN(C(=O)C3(Nc4ccc(C#N)cc4)CCCC3)CC2)c1` [Compound 7], 0.064 µM; with `CCC(CC)(Nc1ccc(C#N)cc1)C(=O)N1CCN(c2cccc(C(F)(F)F)c2)CC1` [Compound 8], 0.568 µM.
The figure for `N#Cc1ccc(NC2(C(=O)N3CCN(c4ccc(C(F)(F)F)cn4)CC3)CCCC2)cc1` [Compound 10, 4-((1-(4-(5-(trifluoromethyl)pyridin-2-yl)piperazine-1-carbonyl)cyclopentyl)amino)benzonitrile] is 0.032 µM; for `N#Cc1ccc(NC2(C(=O)N3CCN(c4cccc(C(F)(F)F)n4)CC3)CC2)cc1` [Compound 12, 4-((1-(4-(6-(trifluoromethyl)pyridin-2-yl)piperazine-1-carbonyl)cyclopropyl)amino)ben zonitrile] it is 6.23 µM; for `N#Cc1ccc(NC2(C(=O)N3CCN(c4cccc(C(F)(F)F)n4)CC3)CCC2)cc1` [Compound 13, 4-((1-(4-(6-(trifluoromethyl)pyridin-2-yl)piperazine-1-carbonyl)cyclobutyl)amino)benzo nitrile] it is 0.378 µM.
Consider `CC(C)(C)C(Nc1ccc(C#N)cc1)C(=O)N1CCN(c2cccc(C(F)(F)F)n2)CC1` (stereo not drawn) [Compound 14], for which the 50% inhibitory concentration (IC50) was 0.087 µM.
With `Cc1cccc(N2CCN(C(=O)C3(Nc4ccc(C#N)cc4)CCCC3)CC2)n1` [Compound 15, 4-((1-(4-(6-methylpyridin-2-yl)piperazine-1-carbonyl)cyclopentyl)amino)benzonitrile] the figure was 0.023 µM.
Regarding `CN(C)C(=O)c1ccc(N2CCN(C(=O)C3(Nc4ccc(C#N)cc4)CCCC3)CC2)nc1` [Compound 16, 6-(4-(1-((4-cyano-phenyl)amino)cyclopentane-1-carbonyl)piperazine-1-yl)N, N-dimethylnicotinamide], the IC50 is 8.92 µM.
The figure for `N#Cc1ccc(NC2(C(=O)N3CCN(c4ncc(C(F)(F)F)cn4)CC3)CCCC2)cc1` [Compound 17, 4-((1-(4-(5-(trifluoromethyl)pyrimidin-2-yl)piperazine-1-carbonyl)cyclopentyl)amino)ben zonitrile] is 0.018 µM.
With `N#Cc1ccc(NC2(C(=O)N3CCN(c4nccc(C(F)(F)F)n4)CC3)CCCC2)cc1` [Compound 18, 4-((1-(4-(4-(trifluoromethyl)pyrimidin-2-yl)piperazine-1-carbonyl)cyclopentyl)amino) benzonitrile] the figure was 0.038 µM; with `N#Cc1ccc(NC2(C(=O)N3CCN(c4ccc(C(F)(F)F)nn4)CC3)CCCC2)cc1` [Compound 19, 4-((1-(4-(6-(trifluoromethyl)pyridazin-3-yl)piperazine-1-carbonyl)cyclopentyl)amino) benzonitrile], 0.087 µM.
The figure for `N#Cc1ccc(NC2(C(=O)N3CCN(c4ccc(C(F)(F)F)nn4)CC3)CCCC2)cc1Cl` [Compound 22, 2-chloro-4-((1-(4-(6-(trifluoromethyl)pyridazin-3-yl)piperazine-1-carbonyl)cyclopentyl)amino)benzonitrile] is 0.765 µM; for `N#Cc1ccc(NC2(C(=O)N3CCN(c4ccc(C(F)(F)F)s4)CC3)CCCC2)cc1` [Compound 24, 4-((1-(4-(5-(trifluoromethyl)thien-2-yl)piperazine-1-carbonyl)cyclopentyl)amino)benzonitrile] it is 0.576 µM; for `N#Cc1ccc(NC2(C(=O)N3CCN(c4ncc(C(F)(F)F)s4)CC3)CCCC2)cc1` [Compound 25, 4-((1-(4-(5-(trifluoromethyl)thiazol-2-yl)piperazine-1-carbonyl)cyclopentyl)amino)benzonitrile] it is 0.876 µM.
As to `Cn1ccc(N2CCN(C(=O)C3(Nc4ccc(C#N)cc4)CCCC3)CC2)n1` [Compound 26, 4-((1-(4-(1-methyl-1H-pyrazol-3-yl)piperazine-1-carbonyl)cyclopentyl)amino)benzonitrile], the IC50 stood at 2.83 µM.
In the case of `C#Cc1ccc(NC2(C(=O)N3CCN(c4cccc(C(F)(F)F)n4)CC3)CCCC2)cc1` [Compound 27, 4-((1-(4-(6-(trifluoromethyl)pyridin-2-yl)piperazine-1-carbonyl)cyclopentyl)amino)phenylacetylene], the concentration for half-maximal inhibition (IC50) is 0.567 µM.
For the compound `N#Cc1ccc(NC2(C(=O)N3C[C@H]4CC[C@@H](C3)N4c3cccc(C(F)(F)F)n3)CCCC2)cc1` [Compound 28, 4-((1-(8-(6-(trifluoromethyl)pyridin-2-yl)-3,8-diazabicyclo[3.2.1]octane-3-carbonyl)cyclopentyl)amino)benzonitrile], the concentration for half-maximal inhibition (IC50) stood at 0.015 µM.
The figure for `N#Cc1ccc(NC2(C(=O)N3CC4CCC3CN4c3cccc(C(F)(F)F)n3)CCCC2)cc1` (stereo not drawn) [Compound 29, 4-((1-(5-(6-(trifluoromethyl)pyridin-2-yl)-2,5-diazabicyclo[2.2.2]octane-2-carbonyl)cyclopentyl)amino)benzonitrile] is 0.026 µM.
The figure for `N#Cc1ccc(NC2(C(=O)N3CCN(CC4CCCC4)CC3)CCCC2)cc1` [Compound 30, 4-((1-(4-(cyclopentanemethyl)piperazine-1-carbonyl)cyclopentyl)amino)benzonitrile] is 0.054 µM.
With `CC(C)CC1CCN(C(=O)C2(Nc3ccc(C#N)cc3)CCCC2)CC1` [Compound 32, 4-((1-(4-(isobutyl)piperidine-1-carbonyl)cyclopentyl)amino)benzonitrile] the figure was 0.543 µM; with `N#Cc1ccc(NC2(C(=O)N3CCC(C4CCCC4)CC3)CCCC2)cc1` [Compound 33, 4-((1-(4-(cyclopentyl)piperidine-1-carbonyl)cyclopentyl)amino)benzonitrile], 0.092 µM; with `N#Cc1ccc(NC2(C(=O)N3CCC4(CCCC4)CC3)CCCC2)cc1` [Compound 34, 4-((1-(8-aza-spiro[4.5]decane-8-carbonyl)cyclopentyl)amino)benzonitrile], 0.287 µM.
As to `N#Cc1ccc(NC2(C(=O)N3CCC(C4CCCCC4)CC3)CCCC2)cc1` [Compound 35, 4-((1-(4-(cyclohexyl)piperidine-1-carbonyl)cyclopentyl)amino)benzonitrile], the IC50 amounted to 0.085 µM.
The figure for `C#Cc1ccc(NC2(C(=O)N3CCC(C(C)(C)C)CC3)CCCC2)cc1` [Compound 36, 4-((1-(4-(tert-butyl)piperidine-1-carbonyl)cyclopentyl)amino)phenylacetylene] is 1.25 µM.
The figure for `CC(C)(C)C1CCN(C(=O)C2(Nc3ccc(C#N)cc3)CCC2)CC1` [Compound 37, 4-((1-(4-(tert-butyl)piperidine-1-carbonyl)cyclobutyl)amino) benzonitrile] is 5.21 µM.
The figure for `CC(C)(C)C1CCN(C(=O)C2(Nc3ccc(C#N)cc3)CC2)CC1` [Compound 38, 4-((1-(4-(tert-butyl)piperidine-1-carbonyl)cyclopropyl)amino)benzonitrile] is 10.2 µM.
With `CC(C)(C)C1CCN(C(=O)C2(Nc3nc(C#N)cs3)CCCC2)CC1` [Compound 39, 2-((1-(4-(tert-butyl)piperidine-1-carbonyl)cyclopentyl)amino) thiazole-4-carbonitrile], the IC50 is 1.08 µM.
